Data published in PMC11289455 (Scientific Reports, 2024).
Like-named read-outs stand apart in the source and are kept apart here.

Tests used:
[1] = biological target: T1, N neuronal α4β2 (neuronal alpha-4-beta-2 nicotinic acetylcholine receptor) (Homo sapiens, UniProt P17787+P43681); test: SafetyScreen44: N neuronal α4β2; assay type: binding
T1 construct: purchased Eurofins Cerep SafetyScreen44

[2] = biological target: T2, 5-HT1B (serotonin 1B receptor) (Rattus norvegicus, UniProt P28564); test: SafetyScreen44: 5-HT1B; assay type: binding
T2 construct: purchased Eurofins Cerep SafetyScreen44

[3] = biological target: T3, 5-HT2B (serotonin 2B receptor) (Homo sapiens, UniProt P41595); test: SafetyScreen44: 5-HT2B; assay type: binding
T3 construct: purchased Eurofins Cerep SafetyScreen44

[4] = biological target: T4, GR (glucocorticoid receptor) (Homo sapiens, UniProt P04150); test: SafetyScreen44: GR; assay type: binding
T4 construct: purchased Eurofins Cerep SafetyScreen44
T4 sequence (P04150 1-777): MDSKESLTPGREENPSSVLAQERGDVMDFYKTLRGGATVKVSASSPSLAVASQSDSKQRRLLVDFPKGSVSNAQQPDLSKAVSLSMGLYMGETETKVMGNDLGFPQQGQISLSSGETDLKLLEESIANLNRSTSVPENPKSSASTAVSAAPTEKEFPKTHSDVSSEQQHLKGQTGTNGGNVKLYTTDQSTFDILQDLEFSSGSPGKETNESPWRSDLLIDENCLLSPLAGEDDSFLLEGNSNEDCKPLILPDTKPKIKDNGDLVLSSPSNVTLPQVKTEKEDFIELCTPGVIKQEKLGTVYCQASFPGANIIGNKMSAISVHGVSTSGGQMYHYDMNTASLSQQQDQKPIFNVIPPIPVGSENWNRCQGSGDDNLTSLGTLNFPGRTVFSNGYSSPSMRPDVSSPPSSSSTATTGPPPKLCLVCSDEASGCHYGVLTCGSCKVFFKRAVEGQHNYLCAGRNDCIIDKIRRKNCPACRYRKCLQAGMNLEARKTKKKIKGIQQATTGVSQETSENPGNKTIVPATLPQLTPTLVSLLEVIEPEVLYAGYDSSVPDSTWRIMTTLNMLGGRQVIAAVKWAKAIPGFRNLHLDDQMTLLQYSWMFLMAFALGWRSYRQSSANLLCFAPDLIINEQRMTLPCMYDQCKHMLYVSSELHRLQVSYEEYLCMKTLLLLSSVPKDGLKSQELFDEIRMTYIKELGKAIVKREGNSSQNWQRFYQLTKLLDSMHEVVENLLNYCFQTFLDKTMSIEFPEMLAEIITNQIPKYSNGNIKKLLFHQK

[5] = biological target: T5, PDE3A (phosphodiesterase 3A) (Homo sapiens, UniProt Q14432); test: SafetyScreen44: PDE3A; assay type: biochemical
T5 construct: purchased Eurofins Cerep SafetyScreen44

[6] = biological target: T6, PDE4D2 (cAMP-specific 3’,5’-cyclic phosphodiesterase 4D2) (Homo sapiens, UniProt Q08499); test: SafetyScreen44: PDE4D2; assay type: biochemical
T6 construct: purchased Eurofins Cerep SafetyScreen44

[7] = Exposure in colon tissue and colon contents in TNBS studies; assay type: in vivo, rat; conditions: TNBS rats, LC-MS/MS, LLOQ=2.6 nM
Protocol: Rats were deprived of food for 24 h prior to induction of colitis by intrarectal installation of TNBS 48 mg/kg (Sigma Aldrich; Raleigh, NC) in 50% ethanol on Day 0. All dose groups (n = approximately 10/group; up to 3 separate experiments) received TNBS, except negative controls, which received only water (n = 4). Rats were weighed daily. Euthanasia by overexposure to isoflurane occurred on Day 7. Following euthanasia, blood was collected retro-orbitally into serum separator microtainer tubes (Becton Dickinson; Franklin Lakes, NJ), centrifuged (2–3 min at 4 °C, 14,000 RPM), and stored at − 80 °C. Additionally, the whole colon was excised, measured, and photographed, and then cut open to allow for collection of the contents, which were weighed and flash frozen. After removal of the contents, colons were weighed and flash frozen. […] Colon weight/length ratio was calculated.
Table S3. […] All samples were analyzed using an LC-MS/MS method (LLOQ=2.6 nM).

[8] = First-in-human study, pharmacokinetics; assay type: in vivo; conditions: healthy participants
Protocol: The purpose of the first-in-human, single-center, randomized, double-blind, placebo-controlled study was to determine the safety, tolerability, pharmacokinetics, and pharmacodynamics of JNJ-77242113 in healthy participants. […] AEs were coded using the Medical Dictionary for Regulatory Activities (Version 23.1).
Whole blood samples were collected in TruCulture Tubes containing 10 ng/mL IL-2 and 20 ng/mL IL-18 with or without additional IL-23 (0.5 ng/mL, R&D Systems/Biotechne). […] IFNγ was quantified via the V-Plex-plus human IFNγ kit (MSD).
Mean concentration–time profiles for each treatment/dose group were presented graphically. Descriptive statistics were used to describe demographic and safety data.

[9] = Part 2 (MAD), once daily oral dosing for 10 days

T3 sequence (P41595 whole entry): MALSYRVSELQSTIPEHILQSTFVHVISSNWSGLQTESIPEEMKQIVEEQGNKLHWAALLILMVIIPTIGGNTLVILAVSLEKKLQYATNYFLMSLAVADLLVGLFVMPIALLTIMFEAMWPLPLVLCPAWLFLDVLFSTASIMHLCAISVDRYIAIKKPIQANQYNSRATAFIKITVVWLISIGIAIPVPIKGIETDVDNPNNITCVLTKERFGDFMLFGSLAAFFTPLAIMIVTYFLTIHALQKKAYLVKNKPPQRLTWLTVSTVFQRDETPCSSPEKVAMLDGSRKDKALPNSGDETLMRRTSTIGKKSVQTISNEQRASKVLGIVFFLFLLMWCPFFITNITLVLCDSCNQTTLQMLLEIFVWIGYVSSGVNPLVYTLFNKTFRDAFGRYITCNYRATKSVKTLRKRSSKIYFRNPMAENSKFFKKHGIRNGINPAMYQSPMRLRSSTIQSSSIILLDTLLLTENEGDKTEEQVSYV
T2 sequence (P28564 whole entry): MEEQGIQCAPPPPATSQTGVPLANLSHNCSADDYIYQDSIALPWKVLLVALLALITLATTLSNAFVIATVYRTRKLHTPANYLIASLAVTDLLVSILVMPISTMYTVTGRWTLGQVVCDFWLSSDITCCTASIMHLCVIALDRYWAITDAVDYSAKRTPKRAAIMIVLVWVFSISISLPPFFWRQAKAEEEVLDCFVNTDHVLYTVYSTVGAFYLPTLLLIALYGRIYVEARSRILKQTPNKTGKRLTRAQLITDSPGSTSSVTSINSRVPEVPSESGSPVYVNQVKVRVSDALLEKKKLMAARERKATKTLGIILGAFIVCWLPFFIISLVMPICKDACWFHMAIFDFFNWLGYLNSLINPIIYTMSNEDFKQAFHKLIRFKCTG
T5 sequence (Q14432 whole entry): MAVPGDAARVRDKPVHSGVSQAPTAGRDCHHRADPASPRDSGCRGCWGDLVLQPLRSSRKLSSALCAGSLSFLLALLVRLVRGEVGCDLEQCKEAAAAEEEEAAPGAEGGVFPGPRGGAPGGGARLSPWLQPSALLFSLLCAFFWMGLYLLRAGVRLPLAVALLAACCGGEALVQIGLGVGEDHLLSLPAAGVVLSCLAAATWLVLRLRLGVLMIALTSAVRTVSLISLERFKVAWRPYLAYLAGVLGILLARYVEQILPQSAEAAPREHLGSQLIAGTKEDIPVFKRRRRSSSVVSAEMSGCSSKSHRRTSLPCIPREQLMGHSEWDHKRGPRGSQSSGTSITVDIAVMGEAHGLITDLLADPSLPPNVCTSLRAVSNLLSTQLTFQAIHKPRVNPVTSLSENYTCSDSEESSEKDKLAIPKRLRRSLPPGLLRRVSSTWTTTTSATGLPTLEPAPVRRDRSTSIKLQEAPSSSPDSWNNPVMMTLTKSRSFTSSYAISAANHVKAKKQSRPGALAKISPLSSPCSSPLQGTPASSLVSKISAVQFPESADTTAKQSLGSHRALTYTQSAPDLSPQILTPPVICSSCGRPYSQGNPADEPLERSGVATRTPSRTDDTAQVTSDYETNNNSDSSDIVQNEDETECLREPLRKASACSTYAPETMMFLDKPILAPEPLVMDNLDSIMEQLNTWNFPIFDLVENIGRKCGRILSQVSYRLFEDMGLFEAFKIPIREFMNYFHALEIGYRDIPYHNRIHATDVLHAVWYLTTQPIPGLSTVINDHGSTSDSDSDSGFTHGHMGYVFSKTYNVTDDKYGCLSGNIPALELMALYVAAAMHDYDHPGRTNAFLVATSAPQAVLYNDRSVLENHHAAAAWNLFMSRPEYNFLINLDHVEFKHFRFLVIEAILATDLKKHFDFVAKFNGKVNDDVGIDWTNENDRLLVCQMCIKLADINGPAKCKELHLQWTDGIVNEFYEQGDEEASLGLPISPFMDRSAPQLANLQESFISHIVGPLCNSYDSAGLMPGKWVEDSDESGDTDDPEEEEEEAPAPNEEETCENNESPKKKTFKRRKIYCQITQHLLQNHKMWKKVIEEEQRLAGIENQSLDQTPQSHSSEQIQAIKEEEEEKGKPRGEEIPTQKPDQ
T6 sequence (Q08499 303-809 limits assumed): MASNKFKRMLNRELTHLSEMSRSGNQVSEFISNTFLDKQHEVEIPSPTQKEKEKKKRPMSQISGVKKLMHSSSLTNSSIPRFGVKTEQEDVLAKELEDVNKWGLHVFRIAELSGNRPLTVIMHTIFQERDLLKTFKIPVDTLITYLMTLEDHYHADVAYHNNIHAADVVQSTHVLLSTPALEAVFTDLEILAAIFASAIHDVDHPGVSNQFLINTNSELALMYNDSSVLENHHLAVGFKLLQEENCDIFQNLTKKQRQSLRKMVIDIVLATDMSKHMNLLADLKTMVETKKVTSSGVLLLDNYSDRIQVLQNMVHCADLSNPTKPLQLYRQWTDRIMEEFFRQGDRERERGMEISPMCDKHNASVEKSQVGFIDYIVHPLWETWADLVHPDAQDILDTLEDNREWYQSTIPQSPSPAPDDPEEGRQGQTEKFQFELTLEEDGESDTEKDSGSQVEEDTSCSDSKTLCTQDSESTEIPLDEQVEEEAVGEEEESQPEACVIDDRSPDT
T1 sequence (P43681 29-627 limits assumed): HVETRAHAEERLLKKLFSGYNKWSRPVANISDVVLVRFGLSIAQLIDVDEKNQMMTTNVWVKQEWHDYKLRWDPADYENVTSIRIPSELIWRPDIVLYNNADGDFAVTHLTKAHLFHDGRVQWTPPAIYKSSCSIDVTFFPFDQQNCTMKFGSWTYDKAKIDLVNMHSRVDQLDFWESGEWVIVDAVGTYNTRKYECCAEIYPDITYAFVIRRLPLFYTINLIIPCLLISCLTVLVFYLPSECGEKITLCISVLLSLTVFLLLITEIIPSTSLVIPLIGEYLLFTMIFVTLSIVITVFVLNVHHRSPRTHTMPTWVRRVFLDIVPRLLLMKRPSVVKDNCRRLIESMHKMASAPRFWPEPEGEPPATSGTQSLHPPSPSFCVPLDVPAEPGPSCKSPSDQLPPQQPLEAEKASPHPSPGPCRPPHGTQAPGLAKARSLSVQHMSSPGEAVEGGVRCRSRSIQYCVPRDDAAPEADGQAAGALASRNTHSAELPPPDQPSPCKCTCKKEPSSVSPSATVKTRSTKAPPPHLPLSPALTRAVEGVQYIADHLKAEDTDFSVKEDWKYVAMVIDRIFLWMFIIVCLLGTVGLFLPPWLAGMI
T1 sequence (P17787 26-502): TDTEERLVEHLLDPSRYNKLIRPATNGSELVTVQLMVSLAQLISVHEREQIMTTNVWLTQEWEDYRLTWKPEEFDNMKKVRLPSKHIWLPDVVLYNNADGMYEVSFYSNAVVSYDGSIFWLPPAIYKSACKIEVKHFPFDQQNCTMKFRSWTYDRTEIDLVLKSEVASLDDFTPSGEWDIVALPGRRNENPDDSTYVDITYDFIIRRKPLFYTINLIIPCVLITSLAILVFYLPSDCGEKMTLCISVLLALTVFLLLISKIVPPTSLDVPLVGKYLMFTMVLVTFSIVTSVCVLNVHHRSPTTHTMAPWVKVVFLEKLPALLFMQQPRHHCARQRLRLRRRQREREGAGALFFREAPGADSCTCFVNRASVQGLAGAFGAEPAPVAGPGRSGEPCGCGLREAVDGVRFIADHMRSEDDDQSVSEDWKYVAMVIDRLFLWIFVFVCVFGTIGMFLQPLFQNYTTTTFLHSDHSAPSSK

SMILES: CC(=O)NCCCC[C@@H]1NC(=O)[C@H](Cc2c[nH]c3c(C)cccc23)NC(=O)[C@H]([C@@H](C)O)NC(=O)[C@H](CC(N)=O)NC(=O)[C@@H](NC(C)=O)C(C)(C)SSC(C)(C)[C@@H](C(=O)N[C@@H](Cc2ccc(OCCN)cc2)C(=O)N[C@@H](Cc2ccc3ccccc3c2)C(=O)NC2(C(=O)N[C@@H](CCC(=O)O)C(=O)N[C@@H](CC(N)=O)C(=O)N[C@@H](Cc3cccnc3)C(=O)N(C)CC(N)=O)CCOCC2)NC1=O [JNJ-77242113, S^3,1,S^3,6-cyclo[N-acetyl-3-sulfanyl-L-valyl-L-asparaginyl-L-threonyl-7-methyl-L-tryptophyl-N^6-acetyl-L-lysyl-3-sulfanyl-L-valyl-O-(2-aminoethyl)-L-tyrosyl-3-(naphthalen-2-yl)-L-alanyl-4-aminooxan-4-carbonyl-L-α-glutamyl-L-asparaginyl-3-(pyridin-3-yl)-L-alanyl-N^2-methylglycinamide]]
- inhibition at 10 µM ([1]; 1st run, read-out: Percent inhibition of control ligand binding, N neuronal α4β2, 1st run): -10.4%
- inhibition at 10 µM ([1]; 2nd run, read-out: Percent inhibition of control ligand binding, N neuronal α4β2, 2nd run): -7.5%
- inhibition at 10 µM ([1]; mean of 2 runs, read-out: Percent inhibition of control ligand binding, N neuronal α4β2, Mean): -8.9%
- inhibition at 10 µM ([2]; 1st run, read-out: Percent inhibition of control ligand binding, 5-HT1B, 1st run): 0%
- inhibition at 10 µM ([2]; 2nd run, read-out: Percent inhibition of control ligand binding, 5-HT1B, 2nd run): -9.8%
- inhibition at 10 µM ([2]; mean of 2 runs, read-out: Percent inhibition of control ligand binding, 5-HT1B, Mean): -4.9%
- inhibition at 10 µM ([3]; 1st run, read-out: Percent inhibition of control ligand binding, 5-HT2B, 1st run): -19.6%
- inhibition at 10 µM ([3]; 2nd run, read-out: Percent inhibition of control ligand binding, 5-HT2B, 2nd run): -6.7%
- inhibition at 10 µM ([3]; mean of 2 runs, read-out: Percent inhibition of control ligand binding, 5-HT2B, Mean): -13.1%
- inhibition at 10 µM ([4]; 1st run, read-out: Percent inhibition of control ligand binding, GR, 1st run): 3.5%
- inhibition at 10 µM ([4]; 2nd run, read-out: Percent inhibition of control ligand binding, GR, 2nd run): -0.8%
- inhibition at 10 µM ([4]; mean of 2 runs, read-out: Percent inhibition of control ligand binding, GR, Mean): 1.3%
- inhibition at 10 µM ([5]; 1st run, read-out: Percent inhibition of control ligand binding, PDE3A, 1st run): -30.6%
- inhibition at 10 µM ([5]; 2nd run, read-out: Percent inhibition of control ligand binding, PDE3A, 2nd run): -44.7%
- inhibition at 10 µM ([5]; mean of 2 runs, read-out: Percent inhibition of control ligand binding, PDE3A, Mean): -37.6%
- inhibition at 10 µM ([6]; 1st run, read-out: Percent inhibition of control ligand binding, PDE4D2, 1st run): -22.6%
- inhibition at 10 µM ([6]; 2nd run, read-out: Percent inhibition of control ligand binding, PDE4D2, 2nd run): -11.7%
- inhibition at 10 µM ([6]; mean of 2 runs, read-out: Percent inhibition of control ligand binding, PDE4D2, Mean): -17.1%
- Colon tissue concentration ([7]; 0.03 mg/kg/day oral, Study 2): BQL
- level at time molar ([7]; 0.1 mg/kg/day oral, Study 1, read-out: Colon content concentration): 410 nM
- level at time molar ([7]; 0.1 mg/kg/day oral, Study 1, read-out: Colon tissue concentration): 12.8 nM
- level at time molar ([7]; 0.1 mg/kg/day oral, Study 2, read-out: Colon content concentration): 310 nM
- level at time molar ([7]; 0.1 mg/kg/day oral, Study 2, read-out: Colon tissue concentration): 16.8 nM
- Colon tissue concentration ([7]; 0.1 mg/kg/day oral, Study 3): BQL
- level at time molar ([7]; 0.1 mg/kg/day oral, Study 3, read-out: Colon content concentration): 299 nM
- level at time molar ([7]; 0.3 mg/kg/day oral, Study 1, read-out: Colon tissue concentration): 25.4 nM
- level at time molar ([7]; 1 mg/kg/day oral, Study 1, read-out: Colon content concentration): 3340 nM
- level at time molar ([7]; 1 mg/kg/day oral, Study 2, read-out: Colon content concentration): 3920 nM
- level at time molar ([7]; 1 mg/kg/day oral, Study 3, read-out: Colon content concentration): 3190 nM
- level at time molar ([7]; 3 mg/kg/day oral, Study 1, read-out: Colon content concentration): 9210 nM
- level at time molar ([7]; 3 mg/kg/day oral, Study 1, read-out: Colon tissue concentration): 333 nM
- level at time molar ([7]; 3 mg/kg/day oral, Study 2, read-out: Colon content concentration): 11700 nM
- level at time molar ([7]; 3 mg/kg/day oral, Study 2, read-out: Colon tissue concentration): 468 nM
- level at time molar ([7]; 3 mg/kg/day oral, Study 3, read-out: Colon content concentration): 11000 nM
- level at time molar ([7]; 3 mg/kg/day oral, Study 3, read-out: Colon tissue concentration): 268 nM
- level at time molar ([7]; male, Sprague-Dawley, rat, colon content, po, 0.03 mg/kg/day, 0.03 mg/kg/day oral, Study 2, read-out: Colon content concentration): 90.1 nM
- level at time molar ([7]; male, Sprague-Dawley, rat, colon content, po, 0.3 mg/kg/day, 0.3 mg/kg/day oral, Study 1, read-out: Colon content concentration): 973 nM
- level at time molar ([7]; male, Sprague-Dawley, rat, colon content, po, 0.3 mg/kg/day, 0.3 mg/kg/day oral, Study 2, read-out: Colon content concentration): 1050 nM
- level at time molar ([7]; male, Sprague-Dawley, rat, colon content, po, 0.3 mg/kg/day, 0.3 mg/kg/day oral, Study 3, read-out: Colon content concentration): 1680 nM
- level at time molar ([7]; male, Sprague-Dawley, rat, colon content, po, 10 mg/kg/day, 10 mg/kg/day oral, Study 2, read-out: Colon content concentration): 38700 nM
- level at time molar ([7]; male, Sprague-Dawley, rat, colon tissue, po, 0.3 mg/kg/day, 0.3 mg/kg/day oral, Study 2, read-out: Colon tissue concentration): 47.5 nM
- level at time molar ([7]; male, Sprague-Dawley, rat, colon tissue, po, 0.3 mg/kg/day, 0.3 mg/kg/day oral, Study 3, read-out: Colon tissue concentration): 23.4 nM
- level at time molar ([7]; male, Sprague-Dawley, rat, colon tissue, po, 1 mg/kg/day, 1 mg/kg/day oral, Study 1, read-out: Colon tissue concentration): 84.3 nM
- level at time molar ([7]; male, Sprague-Dawley, rat, colon tissue, po, 1 mg/kg/day, 1 mg/kg/day oral, Study 2, read-out: Colon tissue concentration): 168 nM
- level at time molar ([7]; male, Sprague-Dawley, rat, colon tissue, po, 1 mg/kg/day, 1 mg/kg/day oral, Study 3, read-out: Colon tissue concentration): 83.2 nM
- level at time molar ([7]; male, Sprague-Dawley, rat, colon tissue, po, 10 mg/kg/day, 10 mg/kg/day oral, Study 2, read-out: Colon tissue concentration): 1410 nM
- Plasma exposure versus dose (in words) ([8]; 100-fold dose range of 10 to 1000 mg oral): Dose-proportional plasma exposure
- Accumulation for AUC, Day 1 versus Day 10 [8, 9]: 0.9 to 1.5
- Accumulation for Cmax, Day 1 versus Day 10 [8, 9]: 0.7 to 1.6
- Estimated terminal elimination half-life ([8]; oral 10 to 1000 mg, plasma LC–MS/MS): 9 to 16 h
